US20210378193A1, “HAPLOID EMBRYOGENESIS” (STICHTING WAGENINGEN RESEARCH, priority 2013, published 2021)

Columns and labels:
[1] = test system: B. napus DH12075 microspore culture; test: sporophytic cell division in B. napus DH12075 microspore culture (DAPI staining); format: cell-based, Brassica napus
Method: Brassica napus L. DH12075 was used as a donor plant for microspore embryo culture. The B. napus plant growth and microspore isolation procedures were performed as described in Custers, J. B. M. (2003) “Microspore culture in rapeseed (Brassica napus L.)” in Doubled haploid production in crop plants: a manual, M. Maluszynski, K. J. Kasha, B. P. Forster, and I. Szarejko, eds (Dordrecht: Kluwer Academic Publishers), pp. 185-193. Flower buds for microspore culture were grouped by size (measured from the tip of the flower bud to the bottom of the sepal), ranging from 3.0 to 3.5 mm for DH4079 and from 2.6 to 4.0 mm for DH12075. The microspores were isolated and cultured in NLN-13 medium (see Lichter, R. (1982) […]. For induction of embryogenesis, microspores were cultured in the dark at 33° C. for 20 hours and subsequently transferred to 25° C. Non-induced microspore cultures were cultured continuously at 25° C. or 18° C. Trichostatin A (TSA, Sigma-Aldrich) was prepared in DMSO. Freshly isolated microspores were inoculated in a medium containing TSA or the same volume of DMSO as a control and cultured for 20 hours at the temperature indicated for each experiment. After this period, the cultures were centrifuged at 200 g for 3 min, resuspended in fresh NLN-13 medium without TSA, and transferred to 25° C.
The developmental stage and identity of cells in microspore and anther culture were visualized with the nuclear stain 4′, 6-diamidino-2-phenylindole (DAPI, 1.25 μg/ml according to Custers (2003) supra using a Zeiss Axioskop epifluorescence microscope with a filter set no. 02. Approximately two hundred microspores or multicellular clusters were counted for each sample. GFP was imaged using confocal laser scanning microscopy (CLSM; Leica DM5500 Q). The GFP was excited with an argon laser line at 488 nm and detected with a 505-530 nm emission filter. Samples were counterstained with DAPI or propidium iodide (10 mg/ml; Sigma-Aldrich). Propidium iodide and red autofluorescence were excited at 532 nm and detected with a 620-660 nm emission filter. GFP and DAPI were covisualized with CLSM. For CLSM, DAPI was excited at 405 nm and detected with a 440-500 nm emission filter. The optical slices were median filtered with Leica LAS AF software. Arabidopsis anthers were cleared in HCG solution (water: Chloral hydrate: glycerol; 3:8:1) for 10 min, then observed under DIC microscopy with a Nikon OPTIPHOT microscope.
Cultured microspores and pollen of B. napus genotype DH12075 were treated with the HDAC inhibitor TSA. We examined the development of microspore cultures by staining heat-stressed (hereafter referred to as control) and heat-stressed plus TSA-treated immature male gametophytes at different developmental stages with the nuclear dye, DAPI. Initial dosage experiments were used to establish the minimal exposure time (20 h) in relation to the specific phenotypes discussed below.
The developmental fate of heat-stressed control cultures and cultures exposed to both heat-stress and TSA was followed by examining older cultures in more detail. […] Heat-stressed microspores and pollen were treated with a range of TSA concentrations, and the cultures examined after five and 15 days using DAPI staining to characterize the different multicellular structures that developed.

[2] = test system: B. rapa genotypes microspore culture; test: embryogenic cell divisions in Brassica rapa microspore culture; format: cell-based; details: 0.5 μM TSA, six B. rapa genotypes
Method: The following B. rapa genotypes were tested in an experiment that measured t h e embryogenic activity of 0.5 μM TSA in microspore culture against respective controls in the absence of TSA: Microspores were obtained from donor buds. Donor buds were ranked from youngest (1) tooldest (3) developmental stage, whereby (2) is an intermediate stage. […] The data also indicates how genotype and/or donor bud stage may influence the level of embryogenic cell divisions caused by enhancement with TSA treatment over controlsin […]. Such stage-dependency is a normal observation in this tissue culture system.

## CC(/C=C/C(=O)NO)=C\[C@@H](C)C(=O)c1ccc(N(C)C)cc1 [TSA, trichostatin A]
[1]; 0.5 μM TSA, 33° C., treatment longer than 20 hours, counted after five days
  effect of duration of TSA treatment on proportion of sporophytic divisions: did not further enhance or reduce
[1]; heat stress plus 0.5 μM TSA, after two days of culture
  proportion of the population dividing sporophytically: up to 80%
[1]; heat stress plus 0.5 μM TSA, two days of culture
  sporophytically-divided cells also containing one or more generative-like nuclei: approximately 10%
[1]; heat-stress and TSA, five-day-old cultures, control 0.5%
  Type IV (loose callus-like) structures: up to 32%
[1]; heat-stress and TSA, five-day-old cultures, control 7%
  Type II (compact callus-like) structures: up to 77%
[1]; heat-stress, 0.5 μM TSA, five days, control 0.5%
  Type I classical embryogenic structures: up to 1%
[1]; heat-stress, ten times lower concentration of TSA than 0.5 μM
  Type I classical embryogenic structures, abundance: much more abundant
[1]; microspore cultures at 18 or 25° C.
  percentage of sporophytic divisions versus control at lower temperature: increased percentage of sporophytic divisions
[2]
  total number of embryogenic cells per bud size compared to the control: greatly increases
